Assay [1] relates to Actinomyces viscosus (A. v) ATCC 27044. The experiment in a line: MIC by broth micro-dilution against Actinomyces viscosus. The class given is cell-based. As to conditions: 37 °C, 18-24 h, no unit in table, dilution series 250-0.12 mg/L (ceiling 250 ppm). How it is done:
A single colony was picked from the Trypticase Digested Soybean peptone agar blood plate (TSA5B) of ordinarily stored bacteria species and used to inoculate corresponding broth culture medium, which was cultivated in a microaerobic environment (P.g needs anaerobic cultivation) with 95% air, 5% CO2 at 37.0° C.±1.0° C., […] Then corresponding broth cultivate medium was used to adjust the turbidity of the bacteria suspension to 0.5^# McFarland standard, equivalent to 1.0×10^8 CFU/mL.
(§1) The operating steps were:
(§2) a. Preparation of the stock solution of antibacterial pharmaceutical: 1% stock solution of various antibacterial pharmaceuticals was prepared with 100% pure ethanol as solvent. The prepared stock solution was filtered to eliminate bacteria, and was distributed into small portions to be used.
(§3) b. Range of measured concentration: the present experiment used 250 ppm as the ceiling measured concentration of the anti-bacterial pharmaceutical.
(§4) c. Measuring method: micro-dilution method. […]
(§5) The bacteria to be tested and standard bacteria were prepared as above. […] 0.12 mg/L, and the final inoculation quantity was about […] or 5×10^6 bacteria in each well. […]

Assay [2] deals with Streptococcus mutans (S. m) ATCC 25175. The assay is described as follows: MIC by broth micro-dilution against Streptococcus mutans. As to conditions: 37 °C, 18-24 h, no unit in table, dilution series 250-0.12 mg/L (ceiling 250 ppm). The class given is cell-based. How it is done: (§6) A single colony was picked from the Trypticase Digested Soybean peptone agar blood plate (TSA5B) of ordinarily stored bacteria species and used to inoculate corresponding broth culture medium, which was cultivated in a microaerobic environment (P.g needs anaerobic cultivation) with 95% air, 5% CO2 at 37.0° C.±1.0° C., wherein S.m was cultivated for 18-24 h, and the remaining two species were cultivated for 40-48 h. Then corresponding broth cultivate medium was used to adjust the turbidity of the bacteria suspension to 0.5^# McFarland standard, equivalent to 1.0×10^8 CFU/mL.
as §1, §2, §3, §4, §5
A general note: In broth dilution the organism is exposed to a series of concentrations in liquid medium.

The subject of assay [3] is Porphyromonas gingivalis (P. g) ATCC 33277. The experiment in a line: MIC by broth micro-dilution against Porphyromonas gingivalis. The class given is cell-based. As to conditions: anaerobic, 37 °C, 18-24 h, no unit in table, dilution series 250-0.12 mg/L (ceiling 250 ppm). How it is done: as §6, §1, §2, §3, §4, §5
The next assay concerns GM-CSF. The assay is described as follows: LUMINEX analysis of GM-CSF in KB cell supernatant. The class given is cell-based, human. The settings on record: concentration not given. How it is done: (§7) Anti-inflammatory activity was assessed using the KB cell (the epidermis cancer cell in human oral cavity). During the experiment, the KB cell inoculated in the cultivating plate was treated with or without positive control or compound 5-hydroxymorusin. After the treatment, the supernatant of the cultivating medium was collected and stored in −80° C. refrigerators. Inflammation was assessed by measuring several inflammation markers: Prostaglandin E2 (PGE2) in the supernatant was detected by Enzyme-linked immunsorbent assay, and LUMINEX™ multifunctional liquid-phase chip analysis system was used for the detection of granulocyte monocyte colony stimulating factor (GM-CSF), tumor necrosis factor-alpha (TNF-α), and interleukins 1-beta and 6 (IL-1β and IL-6).
(§8) LUMINEX™ multifunctional liquid-phase chip analyses of GM-CSF, TNF-α, IL-1 and IL-6: The 96-well plate was enclosed with enclosing liquid for 30 minutes. Fluorescent microspheres were added into the 96-well plate after dilution. The standard and the samples to be measured were added, and incubated overnight at 4° C. The next day, the supernatant was discarded and 50 μL GM-CSF, TNF-α, IL-1β and IL-6 antibodies were added to each well. After being rinsed for 4 times, the 96-well plate was placed in a shaking table, which was in ambient temperature, to keep the plate away from light for 1 hour. […]

The test system of another assay is IL-1β. The experiment in a line: LUMINEX analysis of IL-1β in KB cell supernatant. The class given is cell-based, human. The settings on record: concentration not given. How it is done: as §7, §8
The subject of the next assay is IL-6. The assay is described as follows: LUMINEX analysis of IL-6 in KB cell supernatant. The class given is cell-based, human. The settings on record: concentration not given. How it is done:
as §7, §8

The test system of a further assay is TNF-α. The experiment in a line: LUMINEX analysis of TNF-α in KB cell supernatant. The class given is cell-based, human. As to conditions: concentration not given. How it is done: as §7, §8

As to `Oc1cc(Cl)ccc1Oc1ccc(Cl)cc1Cl` [Triclosan], the “minimum inhibitive concentration (MIC), A. v ATCC 27044” value in assay [1] came out at 3.9. In assay [2], the “minimum inhibitive concentration (MIC), S. m ATCC 25175” value turned out to be 3.9. Moreover, in assay [3], the “minimum inhibitive concentration (MIC), P. g ATCC 33277” value is 7.8. Moreover, the “anti-inflammatory effect, GM-CSF (the larger the value, the stronger the anti-inflammatory ability)” value in the assay with GM-CSF was determined as 5%. Moreover, the “anti-inflammatory effect, IL-1β (the larger the value, the stronger the anti-inflammatory ability)” value in the assay on IL-1β is 7%. Further, the “anti-inflammatory effect, IL-6 (the larger the value, the stronger the anti-inflammatory ability)” value in the assay on IL-6 is 31%. In addition, the “anti-inflammatory effect, TNF-α (the larger the value, the stronger the anti-inflammatory ability)” value with TNF-α is recorded as 81%.

The record behind these values is patent US20080287527A1, “Pharmaceuticals for treating or preventing oral diseases” (HAWLEY & HAZEL (BVI) COMPANY LIMITED, priority 2007, published 2008).
